Measurements: patent US12612392B2, “Compound, pharmaceutical compositions containing same, synthesis method therefor and use thereof” (SHENZHEN ZHONGGE BIOLOGICAL TECHNOLOGY CO., LTD., priority 2022, dated 2026)
Blank lines part the entries; values can stand above or below the molecule they belong to.

How the values were obtained:
model animals = conditions: oral administration for three days; cited from earlier work
healthy participants = conditions: Phase 1, healthy participants; cited from earlier work
mouse models = conditions: cited from earlier work
[1] = In vitro liver microsome stability; assay type: in vitro ADME; conditions: liver microsomes, NADPH, 37° C.
Procedure: A 5 mM MgCl2 100 mM K-Mg buffer solution was pre-heated. 5 μL of a 10 mM compound and a reference stock solution were added to 95 μL of acetonitrile (ACN) to prepare a spiked solution. 1.5 μL of a 500 µM spiked solution and 18.75 μL of 20 mg/mL liver microsomes were added to 479.8 μL of the K-Mg buffer solution. NADPH was dissolved in the K-Mg-buffer solution to prepare an NADPH stock solution ([…]). At different time points (0, 5, 15, 30 and 45 minutes), 30 μL of a 1.5 μM spiked solution containing the microsomes was evenly dropped into an assay plate. The plate was preincubated at 37° C. for 5 minutes. At 0 min, 200 μL of ACN containing IS (internal standard, tolbutamid/terfenadine) was added to the wells, and then 15 μl of the NADPH stock solution (6 mM) was added. For other time points, 15 μL of the NADPH stock solution (6 mM) was added to the wells to initiate the reaction and start the timing. At 5, 15, 30 and 45 min, the reaction was stopped by adding 200 μL of ACN containing IS to the corresponding wells of the plate. After quenching, the plate was shaken at 600 rpm for 10 minutes and then centrifuged at 4000 rpm for 50 minutes. 80 μL of the supernatant from each well was transferred to a 96-well sample plate containing 160 μL of pure water for UPLC/MS/MS analysis.

SMILES: NC(CO)(CO)CO.O=C(COc1ccc(Cl)c(F)c1)NC12CCC(NC(=O)COc3ccc(Cl)c(F)c3)(CC1)[C@@H](OCOP(=O)([O-])O)C2.[Na+] [ABBV-CLS-7262]
brain function of model animals (model animals): restored to youthful levels

SMILES: O=C(COc1ccc(Cl)cc1)NC12CC(c3nnc([C@H]4C[C@@H](OC(F)(F)F)C4)o3)(C1)C2 [DNL-343]
safety and tolerability (healthy participants): demonstrated its safety and tolerability

SMILES: O=C(COc1ccc(Cl)cc1)NC1CCC(NC(=O)COc2ccc(Cl)cc2)CC1 (stereo not shown) [ISRIB]
long-term memory in mouse models (mouse models): improve long-term memory

half-life at 1 µM [1]: 36.8 min
SMILES: O=C(c1ccc(F)cc1)C1CCN(CCn2c(=O)[nH]c3ccccc3c2=O)CC1 [Ketanserin, reference compound]
